Where two headings read alike, the source gives them in different places. No end group written: not given here.
Experiments:
[1] = tested on: S. pyogenes; type: cell-based; conditions: S. pyogenes AP1
Method: (§1) MIC assay was carried out by a microtiter broth dilution method as previously described in the NCSLA guidelines (Wiegand, I., Hilpert, K. & Hancock, R. E. Agar and broth dilution methods to determine the minimal inhibitory concentration (MIC) of antimicrobial substances. Nat Protoc 3, 163-175 (2008)). In brief, fresh overnight colonies were suspended to a turbidity of 0.5 units and further diluted in Mueller-Hinton broth (Becton Dickinson). For determination of MIC, peptides were dissolved in water at concentration 10 times higher than the required range by serial dilutions from a stock solution. Ten μl of each concentration was added to each corresponding well of a 96-well microtiter plate (polypropylene, Costar Corp.) and 90 μl of bacteria (1×10^5) in MH medium added. The plate was incubated at 37° C. for 16-18 h. MIC was taken as the lowest concentration where no visual growth of bacteria was detected.

[2] = tested on: S. pneumoniae; type: cell-based
Method: as §1

[3] = tested on: E. faecalis; assay: MIC, microtiter broth dilution; type: cell-based; conditions: E. faecalis Clinical isolate 2374
Method: as §1

[4] = tested on: P. aeruginosa; type: cell-based, Pseudomonas aeruginosa
Method: as §1

[5] = tested on: E. coli; type: cell-based, Escherichia coli
Method: as §1

[6] = tested on: S. aureus; type: cell-based, Staphylococcus aureus
Method: as §1

[7] = tested on: human blood; conditions: corresponding number for LL-37 (Malmsten et al., in manuscript); cited from earlier work

ILRWPWWPWRRK-NH2 [Omiganan, reference compound]
MIC [1]: 5 µM
MIC ([2]; S. pneumoniae Clinical isolate I-95): 1.25 µM
MIC ([2]; S. pneumoniae Clinical isolate I-104): 160 µM
MIC ([2]; S. pneumoniae Clinical isolate PJ1354): 10 µM
MIC ([2]; S. pneumoniae D39): 5 µM
MIC ([2]; S. pneumoniae TIGR4): 2.5 µM
MIC [3]: 160 µM
MIC ([4]; P. aeruginosa ATCC 27853): 160 µM
MIC ([4]; P. aeruginosa Clinical isolate 10.5): 40 µM
MIC ([4]; P. aeruginosa Clinical isolate 13.2): 40 µM
MIC ([4]; P. aeruginosa Clinical isolate 23.1): 40 µM
MIC ([4]; P. aeruginosa Clinical isolate 27.1): > 160 µM
MIC ([4]; P. aeruginosa Clinical isolate 51.1): 80 µM
MIC ([4]; P. aeruginosa Clinical isolate 62.1): 20 µM
MIC ([4]; P. aeruginosa Clinical isolate 15159): 20 µM
MIC ([4]; P. aeruginosa Clinical isolate 18488): 20 µM
MIC [5]: 20 µM
MIC ([5]; E. coli Clinical isolate 47.1): 20 µM
MIC ([5]; E. coli Clinical isolate 49.1): 10 µM
MIC ([6]; S. aureus ATCC 29213): 10 µM
MIC ([6]; S. aureus Clinical isolate 1086): 10 µM
MIC ([6]; S. aureus Clinical isolate 1088): 20 µM
MIC ([6]; S. aureus Clinical isolate 1090): 80 µM
MIC ([6]; S. aureus Clinical isolate 14312): 20 µM
MIC ([6]; S. aureus Clinical isolate 16065): 5 µM

CC[C@H](C)[C@H](NC(=O)[C@H](CCCCN)NC(=O)[C@H](CCC(=O)O)NC(=O)[C@H](CCCCN)NC(=O)[C@H](CO)NC(=O)[C@H](CCCCN)NC(=O)[C@H](CCCNC(=N)N)NC(=O)[C@H](Cc1ccccc1)NC(=O)[C@H](Cc1ccccc1)NC(=O)[C@H](CC(=O)O)NC(=O)CNC(=O)[C@H](CC(C)C)NC(=O)[C@@H](N)CC(C)C)C(=O)NCC(=O)N[C@@H](CCCCN)C(=O)N[C@@H](CCC(=O)O)C(=O)N[C@@H](Cc1ccccc1)C(=O)N[C@@H](CCCCN)C(=O)N[C@@H](CCCNC(=N)N)C(=O)N[C@H](C(=O)N[C@H](C(=O)N[C@@H](CCC(N)=O)C(=O)N[C@@H](CCCNC(=N)N)C(=O)N[C@H](C(=O)N[C@@H](CCCCN)C(=O)N[C@@H](CC(=O)O)C(=O)N[C@@H](Cc1ccccc1)C(=O)N[C@@H](CC(C)C)C(=O)N[C@@H](CCCNC(=N)N)C(=O)N[C@@H](CC(N)=O)C(=O)N[C@@H](CC(C)C)C(=O)N[C@H](C(=O)N1CCC[C@H]1C(=O)N[C@@H](CCCNC(=N)N)C(=O)N[C@H](C(=O)N[C@@H](CCC(=O)O)C(=O)N[C@@H](CO)C(=O)O)[C@@H](C)O)C(C)C)[C@@H](C)CC)C(C)C)[C@@H](C)CC [LL-37]
Accompanying hemolysis in infected human blood [7]: ~8%
